The nature of series [1]: Solubility in organic solvent (tetrahydrofuran). In kind it is physicochemical. Particulars: 25° C. tetrahydrofuran; % (weight/volume). From the text: [Solubility in Organic Solvent]
The unit of solubility is % (weight/volume).

A short description of series [2]: Dissolution of charge-transporting agent in tetrahydrofuran solution of polycarbonate resin for charge-transporting layer. In kind it is physicochemical. The settings on record: 12.2% tetrahydrofuran solution of polycarbonate resin (Yupilon Z), ultrasonic wave. Here is the method:
The p-terphenyl compound mixture was completely dissolved by propagating an ultrasonic wave thereto. This solution was applied to the charge-generating layer with a wire-wound bar and dried at 110° C. and ordinary pressure for […] to form a charge-transporting layer having a thickness of 20 μm. Thus, Photoreceptor No. 1 was produced.
Photoreceptor No. 6 was produced in the same manner as in Photoreceptor Example 1, except that the p-terphenyl compound singly synthesized as Compound No. 6 was used in place of the charge-transporting agent used in Photoreceptor Example 1.
Photoreceptor No. 7 was produced in the same manner as in Photoreceptor Example 1, except that the p-terphenyl compound singly synthesized as Compound No. 9 was used in place of the charge-transporting agent used in Photoreceptor Example 1.
The p-terphenyl compound mixture was completely dissolved by propagating an ultrasonic wave thereto. This solution was applied to the charge-generating layer with a wire-wound bar and dried at 110° C. and ordinary pressure for 30 minutes to form a charge-transporting layer having a thickness of 10 μm. Furthermore, a semitransparent metal electrode was formed on the charge-transporting layer by vapor deposition to produce Photoreceptor No. 8. […]

This is an account of results in US8486594B2, “P-terphenyl compound mixture and electrophotographic photoreceptors made by using the same” (Hodogaya Chemical Co., Ltd., priority 2006, dated 2013).

In turn, `Cc1ccc(N(c2ccccc2)c2ccc(-c3ccc(-c4ccc(N(c5ccccc5)c5ccc(C)cc5C)cc4)cc3)cc2)c(C)c1` [Compound No. 4, 4,4′-bis(2,4-dimethyldiphenylamino)-p-terphenyl] had a Solubility in tetrahydrofuran in series [1] of 10.0%. With `Cc1ccc(N(c2ccc(C)cc2)c2ccc(-c3ccc(-c4ccc(N(c5ccc(C)cc5)c5ccc(C)cc5)cc4)cc3)cc2)cc1` [Compound No. 6, 4,4′-bis(4,4′-dimethyldiphenylamino)-p-terphenyl], in series [1], the Solubility in tetrahydrofuran is on record as 2.0%. Besides, in series [2], the “dissolution of charge-transporting agent in coating solution” value was “did not dissolve”. On the same counts, the results for `c1ccc(N(c2ccccc2)c2ccc(-c3ccc(-c4ccc(N(c5ccccc5)c5ccccc5)cc4)cc3)cc2)cc1` [Compound No. 9, 4,4′-bis(diphenylamino)-p-terphenyl] are 2.0% and “did not dissolve”. On to `Cc1ccc(N(c2ccccc2)c2ccc(-c3ccc(-c4ccc(N(c5ccccc5)c5ccc(C)cc5)cc4)cc3)cc2)cc1` [Compound No. 1, 4,4′-bis(4-methyldiphenylamino)-p-terphenyl], for which the Solubility in tetrahydrofuran in series [1] amounted to 25.0%.
